In patent US8822530B2, “Sulfur derivatives as chemokine receptor modulators” (Allergan, Inc., priority 2010, dated 2014):

Each compound was assayed against T1, CCR2 receptor (Homo sapiens, UniProt P41597) (assay: Calcium activity assay on FLIPR Tetra in HEK-Gqi5 cells stably expressing CCR2).
T1 construct: expressed in transfected cells
Type: cell-based
Procedure: HEK-Gqi5 cells stably expressing CCR2 were cultured in DMEM high glucose, 10% FBS, 1% PSA, 400 μg/ml geneticin and 50 μg/ml hygromycin. Appropriate positive control chemokines (MCP-1, MIP1A or RANTES) was used as the positive control agonist for screening compound-induced calcium activity assayed on the FLIPR^Tetra. The drug plates were prepared in 384-well microplates using the EP3 and the MultiPROBE robotic liquid handling systems. Compounds were synthesized and tested for CCR2 activity.

T1 sequence (P41597 whole entry): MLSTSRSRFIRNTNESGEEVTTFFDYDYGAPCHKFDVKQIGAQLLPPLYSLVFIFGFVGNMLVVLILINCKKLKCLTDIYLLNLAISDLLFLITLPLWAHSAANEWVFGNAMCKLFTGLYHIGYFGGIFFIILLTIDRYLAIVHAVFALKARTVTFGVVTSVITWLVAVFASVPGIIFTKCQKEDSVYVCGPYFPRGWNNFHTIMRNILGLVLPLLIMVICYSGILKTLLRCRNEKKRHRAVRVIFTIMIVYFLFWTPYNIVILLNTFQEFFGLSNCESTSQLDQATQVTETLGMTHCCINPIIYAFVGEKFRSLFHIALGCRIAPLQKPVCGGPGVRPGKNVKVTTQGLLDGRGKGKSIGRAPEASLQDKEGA

Row | Structure (SMILES) | CCR2 % ANTAGONISM | IC50
1 | O=C(NCCN1CCCC1)c1cccc(CS(=O)(=O)c2ccc(Cl)cc2NS(=O)(=O)c2ccc(Cl)c(C(F)(F)F)c2)c1 | 110% | 817 nM
2 | CN(C)C(=O)c1ccccc1CSc1ccc(Cl)cc1NS(=O)(=O)c1ccc(Cl)c(C(F)(F)F)c1 [2-({[4-chloro-2-({[4-chloro-3-(trifluoromethyl)phenyl]sulfonyl}amino)phenyl]sulfanyl}methyl)-N,N-dimethylbenzamide] | 71% | 171 nM
3 | CCNC(=O)c1ccccc1CSc1ccc(Cl)cc1NS(=O)(=O)c1ccc(Cl)c(C(F)(F)F)c1 [2-({[4-chloro-2-({[4-chloro-3-(trifluoromethyl)phenyl]sulfonyl}amino)phenyl]sulfanyl}methyl)-N-ethylbenzamide] | 92% | 149 nM
4 | NC(=O)c1ccccc1CSc1ccc(Cl)cc1NS(=O)(=O)c1ccc(Cl)c(C(F)(F)F)c1 [2-({[4-chloro-2-({[4-chloro-3-(trifluoromethyl)phenyl]sulfonyl}amino)phenyl]sulfanyl}methyl)benzamide] | 88% | 167 nM
5 | O=C(O)c1ccccc1CSc1ccc(Cl)cc1NS(=O)(=O)c1ccc(Cl)c(C(F)(F)F)c1 [2-({[4-chloro-2-({[4-chloro-3-(trifluoromethyl)phenyl]sulfonyl}amino)phenyl]sulfanyl}methyl)benzoic acid] | 99% | 79 nM
6 | O=C(O)c1ccccc1C[S+]([O-])c1ccc(Cl)cc1NS(=O)(=O)c1ccc(Cl)c(C(F)(F)F)c1 (centres unmarked) [2-({[4-chloro-2-({[4-chloro-3-(trifluoromethyl)phenyl]sulfonyl}amino)phenyl]sulfinyl}methyl)benzoic acid] | 99% | 853 nM
7 | O=C(O)c1ccccc1CS(=O)(=O)c1ccc(Cl)cc1NS(=O)(=O)c1ccc(Cl)c(C(F)(F)F)c1 [2-({[4-chloro-2-({[4-chloro-3-(trifluoromethyl)phenyl]sulfonyl}amino)phenyl]sulfonyl}methyl)benzoic acid] | 105% | –
8 | O=C(O)c1ccccc1CSc1ccc(Cl)cc1NS(=O)(=O)c1cc2ccccc2o1 [2-[({2-[(1-benzofuran-2-ylsulfonyl)amino]-4-chlorophenyl}sulfanyl)methyl]benzoic acid] | 101% | 7 nM
9 | O=C(O)c1ccccc1C[S+]([O-])c1ccc(Cl)cc1NS(=O)(=O)c1cc2ccccc2o1 (centres unmarked) [2-[({2-[(1-benzofuran-2-ylsulfonyl)amino]-4-chlorophenyl}sulfinyl)methyl]benzoic acid] | 98% | 806 nM
10 | O=C(O)c1ccccc1CS(=O)(=O)c1ccc(Cl)cc1NS(=O)(=O)c1cc2ccccc2o1 [2-[({2-[(1-benzofuran-2-ylsulfonyl)amino]-4-chlorophenyl}sulfonyl)methyl]benzoic acid] | 96% | –
11 | O=C(O)c1ccccc1CSc1ccc(F)cc1NS(=O)(=O)c1cc2ccccc2o1 [2-[({2-[(1-benzofuran-2-ylsulfonyl)amino]-4-fluorophenyl}sulfanyl)methyl]benzoic acid] | 99% | 11 nM
12 | O=C(O)c1ccccc1C[S+]([O-])c1ccc(F)cc1NS(=O)(=O)c1cc2ccccc2o1 (centres unmarked) [2-[({2-[(1-benzofuran-2-ylsulfonyl)amino]-4-fluorophenyl}sulfinyl)methyl]benzoic acid] | 92% | 1850 nM
13 | O=C(O)c1ccccc1CS(=O)(=O)c1ccc(F)cc1NS(=O)(=O)c1cc2ccccc2o1 [2-[({2-[(1-benzofuran-2-ylsulfonyl)amino]-4-fluorophenyl}sulfonyl)methyl]benzoic acid] | 89% | 2470 nM
14 | O=C(O)CCSc1ccc(Cl)cc1NS(=O)(=O)c1cc2ccccc2o1 [3-({2-[(1-benzofuran-2-ylsulfonyl)amino]-4-chlorophenyl}sulfanyl)propanoic acid] | 99% | 46 nM

More lines, now with the values ahead:

Row | CCR2 % ANTAGONISM | IC50 | Structure (SMILES)
15 | 97% | 2170 nM | O=C(NCCN1CCCC1)c1cccc(CSc2ccc(Cl)cc2NS(=O)(=O)c2ccc(Cl)c(C(F)(F)F)c2)c1 [3-({[4-chloro-2-({[4-chloro-3-(trifluoromethyl)phenyl]sulfonyl}amino)phenyl]sulfanyl}methyl)-N-[2-(pyrrolidin-1-yl)ethyl]benzamide]
16 | 102% | 56 nM | O=C(O)c1cccc(CSc2ccc(Cl)cc2NS(=O)(=O)c2ccc(Cl)c(C(F)(F)F)c2)c1 [3-({[4-chloro-2-({[4-chloro-3-(trifluoromethyl)phenyl]sulfonyl}amino)phenyl]sulfanyl}methyl)benzoic acid]
17 | 105% | 910 nM | O=C(NCCN1CCCC1)c1cccc(C[S+]([O-])c2ccc(Cl)cc2NS(=O)(=O)c2ccc(Cl)c(C(F)(F)F)c2)c1 (centres unmarked) [3-({[4-chloro-2-({[4-chloro-3-(trifluoromethyl)phenyl]sulfonyl}amino)phenyl]sulfinyl}methyl)-N-[2-(pyrrolidin-1-yl)ethyl]benzamide]
18 | 89% | – | O=C(O)c1cccc(C[S+]([O-])c2ccc(Cl)cc2NS(=O)(=O)c2ccc(Cl)c(C(F)(F)F)c2)c1 (centres unmarked) [3-({[4-chloro-2-({[4-chloro-3-(trifluoromethyl)phenyl]sulfonyl}amino)phenyl]sulfinyl}methyl)benzoic acid]
19 | 51% | – | O=C(NCC[N+]1([O-])CCCC1)c1cccc(CS(=O)(=O)c2ccc(Cl)cc2NS(=O)(=O)c2ccc(Cl)c(C(F)(F)F)c2)c1 [3-({[4-chloro-2-({[4-chloro-3-(trifluoromethyl)phenyl]sulfonyl}amino)phenyl]sulfonyl}methyl)-N-[2-(1-oxidopyrrolidin-1-yl)ethyl]benzamide]
20 | 101% | 1580 nM | O=C(O)c1cccc(CS(=O)(=O)c2ccc(Cl)cc2NS(=O)(=O)c2ccc(Cl)c(C(F)(F)F)c2)c1 [3-({[4-chloro-2-({[4-chloro-3-(trifluoromethyl)phenyl]sulfonyl}amino)phenyl]sulfonyl}methyl)benzoic acid]
21 | 49% | – | CCN(C)C(=O)CCSc1ccc(Cl)cc1NS(=O)(=O)c1ccc(Cl)cc1F [3-[(4-chloro-2-{[(4-chloro-2-fluorophenyl)sulfonyl]amino}phenyl)sulfanyl]-N-ethyl-N-methylpropanamide]
22 | 102% | 129 nM | O=C(O)CCSc1ccc(Cl)cc1NS(=O)(=O)c1ccc(Cl)cc1F [3-[(4-chloro-2-{[(4-chloro-2-fluorophenyl)sulfonyl]amino}phenyl)sulfanyl]propanoic acid]
23 | 89% | 7520 nM | CCN(C)C(=O)CC[S+]([O-])c1ccc(Cl)cc1NS(=O)(=O)c1ccc(Cl)cc1F (centres unmarked) [3-[(4-chloro-2-{[(4-chloro-2-fluorophenyl)sulfonyl]amino}phenyl)sulfinyl]-N-ethyl-N-methylpropanamide]
24 | 83% | – | O=C(O)CC[S+]([O-])c1ccc(Cl)cc1NS(=O)(=O)c1ccc(Cl)cc1F (centres unmarked) [3-[(4-chloro-2-{[(4-chloro-2-fluorophenyl)sulfonyl]amino}phenyl)sulfinyl]propanoic acid]
25 | 87% | 2260 nM | CCN(C)C(=O)CCS(=O)(=O)c1ccc(Cl)cc1NS(=O)(=O)c1ccc(Cl)cc1F [3-[(4-chloro-2-{[(4-chloro-2-fluorophenyl)sulfonyl]amino}phenyl)sulfonyl]-N-ethyl-N-methylpropanamide]
26 | 90% | – | O=C(O)CCS(=O)(=O)c1ccc(Cl)cc1NS(=O)(=O)c1ccc(Cl)cc1F [3-[(4-chloro-2-{[(4-chloro-2-fluorophenyl)sulfonyl]amino}phenyl)sulfonyl]propanoic acid]
27 | 56% | 1690 nM | CCN(CC)C(=O)CC[S+]([O-])c1ccc(Cl)cc1NS(=O)(=O)c1ccc(Cl)c(C(F)(F)F)c1 (centres unmarked) [3-{[4-chloro-2-({[4-chloro-3-(trifluoromethyl)phenyl]sulfonyl}amino)phenyl]sulfinyl}-N,N-diethylpropanamide]
28 | 61% | 1860 nM | CCN(CC)C(=O)CCS(=O)(=O)c1ccc(Cl)cc1NS(=O)(=O)c1ccc(Cl)c(C(F)(F)F)c1 [3-{[4-chloro-2-({[4-chloro-3-(trifluoromethyl)phenyl]sulfonyl}amino)phenyl]sulfonyl}-N,N-diethylpropanamide]
29 | 31% | – | O=C(NCC[N+]1([O-])CCCC1)c1ccc(CSc2ccc(Cl)cc2NS(=O)(=O)c2ccc(Cl)c(C(F)(F)F)c2)cc1 [4-({[4-chloro-2-({[4-chloro-3-(trifluoromethyl)phenyl]sulfonyl}amino)phenyl]sulfanyl}methyl)-N-[2-(1-oxidopyrrolidin-1-yl)ethyl]benzamide]
30 | 75% | 2320 nM | O=C(NCCN1CCCC1)c1ccc(CSc2ccc(Cl)cc2NS(=O)(=O)c2ccc(Cl)c(C(F)(F)F)c2)cc1 [4-({[4-chloro-2-({[4-chloro-3-(trifluoromethyl)phenyl]sulfonyl}amino)phenyl]sulfanyl}methyl)-N-[2-(pyrrolidin-1-yl)ethyl]benzamide]
31 | 102% | 255 nM | O=C(O)c1ccc(CSc2ccc(Cl)cc2NS(=O)(=O)c2ccc(Cl)c(C(F)(F)F)c2)cc1 [4-({[4-chloro-2-({[4-chloro-3-(trifluoromethyl)phenyl]sulfonyl}amino)phenyl]sulfanyl}methyl)benzoic acid]
32 | 85% | 1430 nM | O=C(NCCN1CCCC1)c1ccc(C[S+]([O-])c2ccc(Cl)cc2NS(=O)(=O)c2ccc(Cl)c(C(F)(F)F)c2)cc1 (centres unmarked) [4-({[4-chloro-2-({[4-chloro-3-(trifluoromethyl)phenyl]sulfonyl}amino)phenyl]sulfinyl}methyl)-N-[2-(pyrrolidin-1-yl)ethyl]benzamide]
